{
  "source": "ChEMBL document CHEMBL3351821",
  "about": "“Naturally occurring N(6)-substituted adenosines (cytokinin ribosides) are in vitro inhibitors of platelet aggregation: an in silico evaluation of their interaction with the P2Y(12) receptor” (Bioorg Med Chem Lett, 2014)",
  "tested_on": "Platelet",
  "assay": "Inhibition of collagen-induced human platelet aggregation after 3 mins by light transmission aggregometry",
  "assay_type": "functional, cell-based",
  "conditions": "for IC50: 0.05 h",
  "note": "Active and inactive are the calls of the source. The calls are words filed in the database; no cut-off is given here.",
  "data": [
    {"compound": "OC[C@H]1O[C@@H](n2cnc3c(NCc4ccco4)ncnc32)[C@H](O)[C@@H]1O", "note": "[KINETIN RIBOSIDE]", "values": [
      {"measurement": "IC50", "value": 41.2, "unit": "µM"}
    ]},
    {"compound": "CC(C)=CCNc1ncnc2c1ncn2[C@@H]1O[C@H](CO)[C@@H](O)[C@H]1O", "note": "[RIBOPRINE]", "values": [
      {"measurement": "IC50", "value": 142, "unit": "µM"}
    ]},
    {"compound": "OC[C@H]1O[C@@H](n2cnc3c(NCc4ccccc4)ncnc32)[C@H](O)[C@@H]1O", "note": "[N6-BENZYLADENOSINE]", "values": [
      {"measurement": "IC50", "value": 37.1, "unit": "µM"}
    ]},
    {"compound": "OC[C@H]1O[C@@H](n2cnc3c(NCc4ccc(O)cc4)ncnc32)[C@H](O)[C@@H]1O", "values": [
      {"measurement": "IC50", "value": 6.77, "unit": "µM"}
    ]},
    {"compound": "c1coc(CNc2ncnc3[nH]cnc23)c1", "values": [
      {"measurement": "inhibition", "value": "Active"}
    ]}
  ]
}
